Data as given in patent US8895585B2, “Nicotinamide derivative or salt thereof” (FUJIFILM Corporation, priority 2010, dated 2014).

Experiments:
[1] = system: THP-1 cells; assay: TNFα generation assay; format: cell-based, human; details: Homo sapiens, THP-1, THP-1 cells; Table 22; read-out: IC50 in TNFα generation assay
Method in brief: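 THP-1 cells differentiated to macrophage-like cells with 10 ng/ml IFN-γ for 2 days, preincubated with compound 30 min at room temperature, then cultured 7 h on plates coated with human IgG (10 μg/ml). Secreted TNFα measured by ELISA or AlphaLISA.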

[2] = target: T1, glutathione S-transferase (GST)-fused full-length human Syk protein (Homo sapiens, UniProt P43405); assay: Syk enzyme assay; format: biochemical; details: Syk enzyme assay, Test Example 1; read-out: IC50 of Syk-inhibitory activity
T1 construct: (GST)-fused full-length human Syk protein; GST (glutathione S-transferase); purchased Carna Biosciences
Method in brief: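 Baculovirus-expressed enzyme (1.2 ng) was preincubated with compound in HEPES pH 7.0/MgCl2/DTT buffer, 2 min shaking then 13 min at room temperature. Biotin-EDPDYEWPSA-NH2 (0.4 μM final) and ATP (27 μM final) were added for 40 min at room temperature. EDTA stop, streptavidin-XL/PT66-K TR-FRET at 615/665 nm gave IC50.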

Row | Structure (SMILES) | IC50 [1] [µM] | IC50 [2] [µM]
1 | CC[C@@H](Nc1nc(Nc2cnc3cc(OC)ccc3c2)c(C(N)=O)cc1F)[C@H](C)N [Example 006-190, 6-(((2S,3R)-2-aminopentan-3-yl)amino)-5-fluoro-2-((7-methoxyquinolin-3-yl)amino)nicotinamide] | < 0.065 | < 0.01
2 | CC[C@H](N)[C@@H](C)Nc1nc(Nc2ccc3ncccc3c2)c(C(N)=O)cc1F [Example 006-198, 6-(((2R,3S)-3-aminopentan-2-yl)amino)-5-fluoro-2-((quinolin-6-yl)amino)nicotinamide] | 0.065 to 0.13 | < 0.01
3 | CC[C@H](N)[C@@H](CC)Nc1nc(Nc2ccc3ncccc3c2)c(C(N)=O)cc1F [Example 006-199, 6-(((3R,4S)-4-aminohexan-3-yl)amino)-5-fluoro-2-((quinolin-6-yl)amino)nicotinamide] | 0.065 to 0.13 | < 0.01
4 | CCC[C@@H](Nc1nc(Nc2ccc3ncccc3c2)c(C(N)=O)cc1F)[C@@H](N)CC [Example 006-200, 6-(((3S,4R)-3-aminoheptan-4-yl)amino)-5-fluoro-2-((quinolin-6-yl)amino)nicotinamide] | 0.065 to 0.13 | < 0.01
5 | CC[C@H](N)[C@@H](CC(C)C)Nc1nc(Nc2ccc3ncccc3c2)c(C(N)=O)cc1F [Example 006-201, 6-(((4R,5S)-5-amino-2-methylheptan-4-yl)amino)-5-fluoro-2-((quinolin-6-yl)amino)nicotinamide] | 0.13 to 0.2 | < 0.01
6 | CCC[C@@H](Nc1nc(Nc2cnc3cc(OC)ccc3c2)c(C(N)=O)cc1F)[C@H](C)N [Example 006-204, 6-(((2S,3R)-2-aminohexan-3-yl)amino)-5-fluoro-2-((7-methoxyquinolin-3-yl)amino)nicotinamide] | 0.065 to 0.13 | < 0.01
7 | COc1ccc2cc(Nc3nc(N[C@H](CC(C)C)[C@H](C)N)c(F)cc3C(N)=O)cnc2c1 [Example 006-206, 6-(((2S,3R)-2-amino-5-methylhexan-3-yl)amino)-5-fluoro-2-((7-methoxyquinolin-3-yl)amino)nicotinamide] | 0.13 to 0.2 | < 0.01
8 | CCC[C@@H](Nc1nc(Nc2ccc3ncccc3c2)c(C(N)=O)cc1F)[C@H](C)N [Example 006-207, 6-(((2S,3R)-2-aminohexan-3-yl)amino)-5-fluoro-2-((quinolin-6-yl)amino)nicotinamide] | < 0.065 | < 0.01
9 | CCCC[C@@H](Nc1nc(Nc2ccc3ncccc3c2)c(C(N)=O)cc1F)[C@H](C)N [Example 006-208, 6-(((2S,3R)-2-aminoheptan-3-yl)amino)-5-fluoro-2-((quinolin-6-yl)amino)nicotinamide] | 0.065 to 0.13 | < 0.01
10 | CC(C)C[C@@H](Nc1nc(Nc2ccc3ncccc3c2)c(C(N)=O)cc1F)[C@H](C)N [Example 006-209, 6-(((2S,3R)-2-amino-5-methylhexan-3-yl)amino)-5-fluoro-2-((quinolin-6-yl)amino)nicotinamide] | 0.065 to 0.13 | < 0.01
11 | CC[C@@H](Nc1nc(Nc2ccc3c(cnn3C)c2)c(C(N)=O)cc1F)[C@H](C)N [Example 006-210, 6-(((2S,3R)-2-aminopentan-3-yl)amino)-5-fluoro-2-((1-methyl-1H-indazol-5-yl)amino)nicotinamide] | < 0.065 | < 0.01
12 | CC(C)C[C@H](CN)Nc1nc(Nc2ccc3nccnc3c2)c(C(N)=O)cc1F [Example 006-212, (R)-6-((1-amino-4-methylpentan-2-yl)amino)-5-fluoro-2-((quinoxalin-6-yl)amino)nicotinamide] | 0.13 to 0.2 | < 0.01
13 | NC[C@@H](CC1CC1)Nc1nc(Nc2ccc3ncccc3c2)c(C(N)=O)cc1F [Example 006-214, (R)-6-((1-amino-3-cyclopropylpropan-2-yl)amino)-5-fluoro-2-((quinolin-6-yl)amino)nicotinamide] | 0.065 to 0.13 | < 0.01
14 | COc1ccc2cc(Nc3nc(N[C@@H](CN)CC4CC4)c(F)cc3C(N)=O)cnc2c1 [Example 006-215, (R)-6-((1-amino-3-cyclopropylpropan-2-yl)amino)-5-fluoro-2-((7-methoxyquinolin-3-yl)amino)nicotinamide] | 0.065 to 0.13 | < 0.01
15 | C[C@H](N)[C@@H](C)Nc1nc(Nc2cncc(Cl)c2)c(C(N)=O)cc1F [Example 006-216, 6-(((2R,3S)-3-aminobutan-2-yl)amino)-2-((5-chloropyridin-3-yl)amino)-5-fluoronicotinamide] | 0.065 to 0.13 | 0.01 to 0.05
16 | C[C@H](N)[C@@H](CC1CC1)Nc1nc(Nc2ccc3ncccc3c2)c(C(N)=O)cc1F [Example 006-217, 6-(((2R,3S)-3-amino-1-cyclopropylbutan-2-yl)amino)-5-fluoro-2-((quinolin-6-yl)amino)nicotinamide] | < 0.065 | < 0.01

Row | Structure (SMILES) | IC50 [1] [µM] | IC50 [2] [µM]
17 | CC[C@@H](Nc1nc(Nc2cncc(-n3cccn3)c2)c(C(N)=O)cc1F)[C@H](C)N [Example 006-218, 2-((5-(1H-pyrazol-1-yl)pyridin-3-yl)amino)-6-(((2S,3R)-2-aminopentan-3-yl)amino)-5-fluoronicotinamide] | 0.065 to 0.13 | < 0.01
18 | CCC[C@@H](Nc1nc(Nc2ccnc(-c3ccco3)c2)c(C(N)=O)cc1F)[C@H](C)N [Example 006-220, 6-(((2S,3R)-2-aminohexan-3-yl)amino)-5-fluoro-2-((2-(furan-2-yl)pyridin-4-yl)amino)nicotinamide] | < 0.065 | < 0.01
19 | CCC[C@@H](Nc1nc(Nc2ccnc(-n3nccn3)c2)c(C(N)=O)cc1F)[C@H](C)N [Example 006-221, 2-((2-(2H-1,2,3-triazol-2-yl)pyridin-4-yl)amino)-6-(((2S,3R)-2-aminohexan-3-yl)amino)-5-fluoronicotinamide] | 0.065 to 0.13 | < 0.01
20 | CCC[C@@H](Nc1nc(Nc2cncc(-c3ccccc3F)c2)c(C(N)=O)cc1F)[C@H](C)N [Example 006-222, 6-(((2S,3R)-2-aminohexan-3-yl)amino)-5-fluoro-2-((5-(2-fluorophenyl)pyridin-3-yl)amino)nicotinamide] | 0.065 to 0.13 | < 0.01
21 | CCC[C@@H](Nc1nc(Nc2cncc(C3CC3)c2)c(C(N)=O)cc1F)[C@H](C)N [Example 006-223, 6-(((2S,3R)-2-aminohexan-3-yl)amino)-2-((5-cyclopropylpyridin-3-yl)amino)-5-fluoronicotinamide] | < 0.065 | < 0.01
22 | C[C@@H](N)[C@@H](C)Nc1nc(Nc2ccc3ncccc3c2)c(C(N)=O)cc1F [Example 006-224, 6-(((2R,3R)-3-aminobutan-2-yl)amino)-5-fluoro-2-((quinolin-6-yl)amino)nicotinamide] | < 0.065 | 0.01 to 0.05
23 | CC(C)C[C@H](CN)Nc1nc(Nc2ccc3cnn(C)c3c2)c(C(N)=O)cc1F [Example 006-226, (R)-6-((1-amino-4-methylpentan-2-yl)amino)-5-fluoro-2-((1-methyl-1H-indazol-6-yl)amino)nicotinamide] | 0.065 to 0.13 | < 0.01
24 | CC(C)C[C@H](CN)Nc1nc(Nc2cccc3c2cnn3C)c(C(N)=O)cc1F [Example 006-227, (R)-6-((1-amino-4-methylpentan-2-yl)amino)-5-fluoro-2-((1-methyl-1H-indazol-4-yl)amino)nicotinamide] | 0.13 to 0.2 | < 0.01
25 | CC(C)C[C@H](CN)Nc1nc(Nc2ccc3cccnc3c2)c(C(N)=O)cc1F [Example 006-228, (R)-6-((1-amino-4-methylpentan-2-yl)amino)-5-fluoro-2-((quinolin-7-yl)amino)nicotinamide] | 0.13 to 0.2 | < 0.01
26 | CC(C)C[C@H](CN)Nc1nc(Nc2cccc3ncccc23)c(C(N)=O)cc1F [Example 006-229, (R)-6-((1-amino-4-methylpentan-2-yl)amino)-5-fluoro-2-((quinolin-5-yl)amino)nicotinamide] | 0.065 to 0.13 | < 0.01
27 | COc1ccc2ncc(Nc3nc(N[C@@H](CN)CC(C)C)c(F)cc3C(N)=O)cc2c1 [Example 006-232, (R)-6-((1-amino-4-methylpentan-2-yl)amino)-5-fluoro-2-((6-methoxyquinolin-3-yl)amino)nicotinamide] | 0.13 to 0.2 | < 0.01
28 | Cc1ccc(Nc2nc(N[C@@H](CN)CC(C)C)c(F)cc2C(N)=O)cn1 [Example 006-233, (R)-6-((1-amino-4-methylpentan-2-yl)amino)-5-fluoro-2-((6-methylpyridin-3-yl)amino)nicotinamide] | 0.13 to 0.2 | 0.01 to 0.05
29 | COc1cc(Nc2nc(N[C@@H](CN)CC(C)C)c(F)cc2C(N)=O)ccn1 [Example 006-234, (R)-6-((1-amino-4-methylpentan-2-yl)amino)-5-fluoro-2-((2-methoxypyridin-4-yl)amino)nicotinamide] | 0.065 to 0.13 | < 0.01
30 | CCC[C@@H](Nc1nc(Nc2ccc3c(cnn3C)c2)c(C(N)=O)cc1F)[C@H](C)N [Example 006-236, 6-(((2S,3R)-2-aminohexan-3-yl)amino)-5-fluoro-2-((1-methyl-1H-indazol-5-yl)amino)nicotinamide] | < 0.065 | < 0.01
31 | CCC[C@@H](Nc1nc(Nc2ccc3c(cnn3CC)c2)c(C(N)=O)cc1F)[C@H](C)N [Example 006-237, 6-(((2S,3R)-2-aminohexan-3-yl)amino)-2-((1-ethyl-1H-indazol-5-yl)amino)-5-fluoronicotinamide] | < 0.065 | < 0.01
